Measurements: article PMC12858405, “Ideal efficacy photoswitching for chromocontrol of TRPC4/5 channel functions in live tissues” (Nature Chemical Biology, 2026)

Tests used:
[1] = system: Th+ neurons of Th-GCaMP6f (WT) mice; test: GCaMP6f Ca2+ imaging of Th+ neurons in arcuate nucleus brain slices with 355 nm photoswitching, Th-GCaMP6f (WT) mice; settings: for EC50: Mus musculus, Neuron, read-out: EC50 of Z-isomer-induced Ca2+ responses (ΔAUC) in Th+ neurons, WT
Text: slices through the ARC of mice expressing the Ca2+ indicator GCaMP6f in Th+ neurons (Fig. 4),
we investigated (1) whether Ca2+ responses at endogenous TRPC5 expression levels can be
TRPC5 expression using TRPC5-deficient brain slices, (3) whether a dose dependence could be
detected, and (4) whether there are properties in channel activity that can be distinguished between
concentration-response measurements (Fig. 5d).

mouse TRPC4β = target: T1, mouse TRPC4β (Mus musculus, UniProt Q9QUQ5); test: FLIPR Ca2+ influx assay (Fluo-4) with 365/447 nm photoswitching, HEK293 stably expressing mouse TRPC4β; format: cell-based; settings: for EC50: Z* = mostly-Z PSS under 365 nm LED, Fluo-4-loaded cells, read-out: Agonistic EC50 (365 nm) TRPC4
T1 construct: expressed in transfected cells; host or cells: HEK293 (ATCC CRL 1573), stably transfected, tetracycline-induced
T1 sequence (Q9QUQ5 1-890 isoform Q9QUQ5-2): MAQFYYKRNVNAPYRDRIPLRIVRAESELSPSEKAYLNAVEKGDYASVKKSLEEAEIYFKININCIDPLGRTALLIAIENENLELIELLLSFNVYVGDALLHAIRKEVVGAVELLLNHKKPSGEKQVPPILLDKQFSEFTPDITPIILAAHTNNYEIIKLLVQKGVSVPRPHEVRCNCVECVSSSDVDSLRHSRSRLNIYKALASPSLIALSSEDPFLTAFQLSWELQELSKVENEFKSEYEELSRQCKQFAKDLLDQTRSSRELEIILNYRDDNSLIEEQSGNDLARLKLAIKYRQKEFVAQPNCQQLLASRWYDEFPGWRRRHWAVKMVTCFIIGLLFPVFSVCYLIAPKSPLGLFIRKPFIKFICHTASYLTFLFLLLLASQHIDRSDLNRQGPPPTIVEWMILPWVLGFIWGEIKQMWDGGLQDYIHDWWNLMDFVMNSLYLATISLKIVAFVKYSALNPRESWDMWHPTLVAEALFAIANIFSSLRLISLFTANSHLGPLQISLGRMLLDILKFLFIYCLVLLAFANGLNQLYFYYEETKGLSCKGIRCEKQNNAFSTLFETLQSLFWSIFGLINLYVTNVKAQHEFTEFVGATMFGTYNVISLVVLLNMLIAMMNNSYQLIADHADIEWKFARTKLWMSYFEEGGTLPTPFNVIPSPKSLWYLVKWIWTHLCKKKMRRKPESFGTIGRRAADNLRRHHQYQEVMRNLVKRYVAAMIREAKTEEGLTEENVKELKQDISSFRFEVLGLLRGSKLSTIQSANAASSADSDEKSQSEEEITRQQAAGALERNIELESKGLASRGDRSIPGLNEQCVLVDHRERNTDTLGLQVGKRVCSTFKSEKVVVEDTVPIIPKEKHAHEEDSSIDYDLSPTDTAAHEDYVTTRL
Text: We initially screened for the photoswitchability of activity in cells using a fluorometric imaging plate reader (FLIPR) calcium flux assay, with HEK293 cells stably expressing mouse TRPC4β or mouse TRPC5. Note, however, that the parallel-throughput FLIPR setup is limited to use fixed light-emitting diodes at 365 nm (good Z) and 447 nm (suboptimal E), which, combined with the slowness of the onset and recovery of the fluorescence readout for calcium, causes the FLIPR results to underestimate the reagents’ true speed, degree and completion of TRPC chromocontrol (shown later). […]
3 Cultured Cell Lines (primarily for Fig. 1 and Fig. 2)
3.1 FLIPR Ca2+ influx assay in cell suspensions.
We initially screened for photoswitchability of activity in cells, using a fluorometric imaging plate reader (FLIPR) calcium flux assay, with human embryonic kidney cell line HEK293 stably transfected to express mouse TRPC4β- or TRPC5-CFP fusion protein (HEKmTRPC4β-CFP / HEKmTRPC5-CFP, HEK293 obtained from ATCC CRL 1573). The FLIPR setup provides high-content data, but it is limited to using LED wavelengths of 365 nm (best-Z) and 447 nm (suboptimal-E), while imaging at 470 nm excitation (Fluo-4 AM as Ca2+ indicator; this imaging light counteracts both PSSs). Therefore, we expected the FLIPR results to under-estimate the true chromocontrol power accessible to the reagents.
Cells were grown to 70%-90% confluency in a 75-cm2 culture flask, trypsinised, washed and resuspended in BSA-containing (0.1%) HBS, and supplemented with 3 µM Fluo-4/AM. Stably TRPC-transfected cells were induced with tetracycline 24 h prior to the experiments.42,43 After incubation at 37°C for 30 min [Fluo-4 loading], cells were again washed, resuspended, and dispensed (40 µl/well) into black pigmented, clear-bottom 384-well plates (Greiner µ-clear). To image the Fluo-4 fluorescence during the application and photoswitching of test compounds, these plates were first mounted to a Tecan Fluent 480 (Tecan, Männedorf, Switzerland) liquid handling device, equipped with a 384-tip multichannel arm and a gripper arm. A custom-made plate-imaging device was used for photoswitching during fluorescence imaging, which features LED-based excitation modules (365 nm and 447 nm used here for photoswitching, and 470 nm used here for Fluo-4 readout) projected onto the bottom of the microwell plate, with a cooled scientific complementary metal oxide sensor (sCMOS) camera (Zyla 5.5, Andor, Belfast, UK) equipped with a Nokton 42.5 mm f/0.95 (Voigtlaender, Fürth, Germany) for detection. The LEDs were controlled with an Arduino device and constant current drivers (1 A for 365 and 470 nm LEDs; 3 A for 447 nm LED); detection was under the control of Micromanager 2.0 software. Compounds were serially diluted and applied to the Fluo-4-loaded cell suspensions inside this custom plate-imaging device, then fluorescence intensities (under 470 nm excitation) were continuously recorded during programmed illuminations e.g. with alternating 365 nm and 447 nm phases.
Concentration-response curves for the Z-isomers (channel activation) were then constructed from the maximal signals during 365 nm phases, after a suitable number of "priming" cycles to allow the system to reach stable performance (Supplementary Fig. 13).
All experiments were conducted as a minimum of 3 independent experiments with each experiment averaging data in technical duplicates.
Cellular TRPC4 photoswitching: HEK cell Ca2+ influx photomodulation […]
Supplementary Figure 12. […]

| Effect of E isomer alone on TRPC4 (mouse TRPC4β; 12 pM to […], before 365-nm illumination) | Structure (SMILES) | Cells with sustained high Ca2+ signal lasting up to 3 min ([1]; 500 nM, 355 nm pulse) [%] | Cells with sustained high Ca2+ signal lasting up to 3 min (count) ([1]; 500 nM, 355 nm pulse) | EC50 [1] [nM] | EC50 (mouse TRPC4β) [nM] | Activity of Z isomer on TRPC4 (mouse TRPC4β; into the micromolar range, 365 nm) |
| --- | --- | --- | --- | --- | --- | --- |
|  | Cn1c(=O)n(CCCO)c(=O)c2c1nc(Oc1ccc(N=Nc3ccccc3)c(Cl)c1)n2Cc1ccc(Cl)cc1 [AzHC] | 42 | 14 of 33 | 130 ± 100 |  |  |
|  | Cn1c(=O)n(CCCO)c(=O)c2c1nc(Oc1ccc(N=Nc3ccccc3)c(OC(F)(F)F)c1)n2Cc1ccc(Cl)cc1 [AzPico] |  | 13 out of 31 |  | 3 |  |
| no effect | Cn1c(=O)n(CCCO)c(=O)c2c1nc(Oc1ccc(/N=N/c3ccccc3)c(OC(F)(F)F)c1)n2Cc1ccc(Cl)cc1 [E-AzPico] |  |  |  |  |  |
|  | Cn1c(=O)n(CCCO)c(=O)c2c1nc(Oc1ccc(/N=N\c3ccccc3)c(Cl)c1)n2Cc1ccc(Cl)cc1 [Z*-AzHC] |  |  | 130 ± 100 | > 1000 | completely inactive |
